Laboratory results from PMC4530474, “Carbohydrate scaffolds as glycosyltransferase inhibitors with in vivo antibacterial activity” (Nature Communications, 2015).
In brackets after ≈: the same amount, converted by molar mass. Several values for one entry are separate records, joined by “and”; a condition that tells them apart may be missing. Equal entries are not always repeated. Entries after “also recorded” stand apart in the source; their conditions may differ.

Experiments:
S. aureus Newbould 305 = assay: MIC determination (Mueller-Hinton agar dilution); assay type: cell-based; conditions: Staphylococcus aureus
Text: guidelines 23. […] In addition
The animal experiments were
To evaluate the dose-response

Human red blood cells = conditions: male, 1 h
Method: Human male red blood cells were isolated from fresh whole blood sample and washed with phosphate
buffered saline (PBS) 3 times. Red blood cells were diluted 1/200 with PBS for the haemolysis assay.
Each compound was assayed at 4 different concentrations in quadruplicate. Control items (100 μM
tamoxifen and 1% triton X100) were also assayed in quadruplicate. Background was determined with
1% DMF. The assay was performed for 1 h at 37 °C. The samples were then centrifuged for 10 min at
4°C at 1000 × g, the supernatant was recovered and absorption was measured at 415 nm. Results are
expressed as the % haemolysis compared to 1% triton X100 after background was subtracted, and
fitting dose response curve with Prism (GraphPad) to extract HC50 values.

[1] = microsomes
Method: In vitro metabolic stability studies
(§1) Compounds (1 μM) were incubated at 37 °C with human or mouse liver microsomes. The reaction was
(§2) initiated by the addition of an NADPH-regenerating system and quenched at various time points over
(§3) the incubation period by the addition of acetonitrile. Additional samples co-activated by NADP and
(§4) UDPGA (the co-factor for glucuronidation), were included in the incubation for the qualitative
(§5) assessment of the potential for glucuronide formation. The relative loss of parent compound and
(§6) formation of metabolic products was determined by LC/MS using the Q-TOF instrument. The studies
(§7) were conducted by a contract research organization (Centre for Drug Candidate Organization, Monash
University, Melbourne, Australia).
In vivo efficacy and PK studies
(§8) The in vivo pharmacokinetics of the compounds were studies in overnight-fasted male Sprague Dawley
(§9) Rats had access to water ad libitum throughout the pre- and post-dose
(§10) sampling period, and access to food was re-instated 4 hours post-dose. Compounds were
(§11) administrated IV as a 10 minute constant rate infusion (1.0 mL per rat, n=2 rats). Samples of arterial
(§12) Arterial blood was collected directly into
(§13) borosilicate vials (at 4 °C) containing heparin, Complete (a protease inhibitor cocktail), potassium
(§14) fluoride and EDTA to minimize potential for ex vivo degradation. Once collected, blood samples were […]
determined by LCMS (LLQ 0.0014 M). […]

[2] = mouse liver microsomes, 1 μM, 37 °C
Method: In vitro metabolic stability studies
as §1, §2, §3, §4, §5, §6, §7
University, Melbourne, Australia).
In vivo efficacy and PK studies
as §8, §9, §10, §11, §12, §13, §14
determined by LCMS (LLQ 0.0014 M). […]

[3] = rat, in vivo, iv
Method: In vitro metabolic stability studies
as §1, §2, §3, §4, §5, §6, §7
University, Melbourne, Australia).
In vivo efficacy and PK studies
as §8, §9, §10, §11, §12, §13
(§15) fluoride and EDTA to minimize potential for ex vivo degradation. Once collected, blood samples were
(§16) centrifuged, supernatant plasma was removed, and plasma concentration of compounds were
(§17) determined by LCMS (LLQ 0.0014 M). The studies were conducted by a contract research organization
(§18) (Centre for Drug Candidate Organization, Monash University, Melbourne, Australia).

in vivo [4] = conditions: male, Sprague Dawley, rat, iv, 3.5 mg/kg
Method: In vitro metabolic stability studies
as §1, §2, §3, §4, §5, §6, §7
University, Melbourne, Australia).
In vivo efficacy and PK studies
as §8, §9, §10, §11, §12, §13, §15, §16, §17, §18

in vivo [5] = conditions: male, CD-1, mouse, ip
Method: In vivo Maximum Tolerated Dose
(§19) Compound dissolved in 0.05% Tween 80/0.9% NaCl were each administered IP at doses of 20, 60 and
(§20) 100 mg kg-1 to groups of 2 CD-1 (Crl.) derived male mice weighing 22 ± 2 g. The animals were observed
(§21) for presence of acute toxic symptoms (mortality, convulsions, tremors, muscle relaxation, sedation,
(§22) etc.) and autonomic effects (diarrhea, salivation, lacrimation, vasodilation, piloerection, etc.) during
the first 30 min post-dosing.
(§23) For the IV studies, compounds were dissolved in 10% DMSO/0.1 M HCl/1% Tween 80/5% Glucose were
(§24) prepared at a dose of 4 mg kg-1 and were administered intravenously once to groups of 3 CD-1 (Crl.)
(§25) derived male mice weighing 22 ± 2 g, and monitored and analyzed similar to the IP study during the
(§26) first 5 min post dosing (IV). In addition, Group 3 and Group 5 were administered intravenously with
(§27) compounds at 4 mg kg-1 for 2 times (T=0 and T=170 minutes) and the autonomic signs and neurological
(§28) changes were observed during the first 5 min after the first and the second dose. Mortality was also

S. aureus (Smith) = assay: Mouse model of septicemia
Method: In vivo Septicaemia mouse model
Groups of 10 male CD-1 (Crl.) derived mice weighing 22 ± 2 g were used. The mice were inoculated
of brain-heart infusion broth containing 5% mucin. Compounds were dissolved in 0.05% Tween
80/0.9% NaCl. Vehicle and compounds at 50 and 100 mg kg-1 were each administered intraperitoneally
10 and/or 180 minutes after S. aureus (Smith) challenge. Ampicillin (0.1 mg kg-1, IP, as positive control
agent) was administered to test animals at 1 h after the inoculation. Mortality was monitored once
For the corresponding IV studies compounds at 4 mg kg-1 were dissolved in 10% DMSO/0.1 M HCl/1%
Tween 80/5% glucose, and compounds were each administered intravenously at 10 min and/or 180
min after S. aureus (Smith) challenge.

[6] = In vivo maximum tolerated dose, i.p.; conditions: mice
Method: In vivo Maximum Tolerated Dose
as §19, §20, §21, §22
the first 30 min post-dosing.
as §23, §24, §25, §26, §27, §28

[7] = tested on: S. aureus MSSA, ATCC 25923; assay: MIC determination (broth microdilution); conditions: Staphylococcus aureus
Method: (§29) Bacteria were cultured in Brain–Heart Infusion (Bacto laboratories, Cat. no. CM1135B) at 37 °C overnight. […] MICs were determined visually as the lowest concentration showing no visible growth.

[8] = tested on: S. aureus MRSA, ATCC 43300; assay: MIC determination (broth microdilution); conditions: Staphylococcus aureus
Method: as §29

S. aureus NRS 17—GISA = assay: MIC determination (broth microdilution); conditions: Staphylococcus aureus, NRS17
Method: as §29

S. aureus NRS 1—GISA = assay: MIC determination (broth microdilution); conditions: Staphylococcus aureus, NRS1
Method: as §29

S. aureus VRS 1 = assay: MIC determination (broth microdilution); conditions: Staphylococcus aureus, VRS1
Method: as §29

[9] = tested on: S. aureus mMRSA, DRSA, ci; assay: MIC determination (broth microdilution); conditions: Staphylococcus aureus
Method: as §29

E. faecium ATCC 35667 = assay: MIC determination (broth microdilution); conditions: Enterococcus faecium, ATCC35667
Method: as §29

[10] = tested on: E. faecium VanA, ATCC 51559; assay: MIC determination (broth microdilution); conditions: Enterococcus faecium, ATCC51559
Method: as §29

E. faecalis ATCC 29212 = assay: MIC determination (broth microdilution); conditions: Enterococcus faecalis, ATCC29212
Method: as §29

E. faecalis VanA, ci = assay: MIC determination (broth microdilution); conditions: Enterococcus faecalis
Method: as §29

[11] = tested on: S. pneumoniae MDR, ATCC 700677; assay: MIC determination (broth microdilution); conditions: Streptococcus pneumoniae, ATCC700677
Method: as §29

E. coli ATCC 25922 = assay: MIC determination (broth microdilution); conditions: Escherichia coli, ATCC25922
Method: as §29

[12] = tested on: S. aureus (Newbould 305, ATCC 29740); assay: Mouse mammary gland infection (mastitis) model
Method: Each compound was instilled at different doses into the teat canal of both contralateral glands from the fourth mammary gland pair of lactating mice at 4 h after bacterial inoculation.
The procedure for mouse mammary gland infection has been recently described[64]. CD-1 lactating mice were utilized 12–14 days after giving birth, with pups weaned 1–2 h before bacterial inoculation of the mammary glands. Inoculation of both left (L4) and right (R4) glands of the fourth abdominal mammary gland pair of anesthetized mice with 150 c.f.u. of S. aureus, was done using 32-gauge syringes (blunt needle). The antimicrobial formulation was instilled into the mammary gland of anesthetized mice at 4 h after bacterial inoculation, followed by i.p. administration of postoperative analgesic Buprecare. […] Bacterial c.f.u. counts were obtained after quantification of serial logarithmic dilutions of mammary gland homogenates on TSA. The detection limit (DL) was 1.7 log10 c.f.u. g^−1 gland weight (for more details see Supplementary Methods).
The actual colony forming units (CFU) of the inocula was confirmed by overnight culture of a serial logarithmic dilution on tryptic soy agar (TSA; Oxoid Limited) plates.

S.aureus MSSA = assay: MIC, chemotype M3 library (Supplementary Table 1); conditions: Staphylococcus aureus
Method: as §29

S.aureus MRSA = assay: MIC, chemotype M3 library (Supplementary Table 1); conditions: Staphylococcus aureus
Method: as §29

E. faecium = assay: MIC, chemotype M3 library (Supplementary Table 1); conditions: Enterococcus faecium
Method: as §29

E. faecium VanB = assay: MIC, chemotype M3 library (Supplementary Table 1); conditions: Enterococcus faecium
Method: as §29

E. faecalis = assay: MIC, chemotype M3 library (Supplementary Table 1); conditions: Enterococcus faecalis
Method: as §29

E.coli = assay: MIC, chemotype M3 library (Supplementary Table 1); conditions: Escherichia coli
Method: as §29

PBP1 from C. difficile = assay: Glycosyltransferase activity by HPLC, NBD-lipid II; conditions: 200 μg ml^−1, NBD-lipid II
Method: (§30) We then monitored the transformation of fluorescent NBD-lipid II by two different GT enzymes, PBP1 from Clostridium difficile and MGT from S. aureus.
(§31) 25 °C. The reaction was initiated by addition of glycosyltransferease (2.5 µg mL-1) and terminated by
(§32) The reaction mixtures were then analysed by a
(§33) HPLC system (Hitachi) equipped with an anion-exchange column (5 μm, 4.6 × 250 mm, SAX1, Supelco
(§34) Co.) using a linear gradient of NH4OAc/MeOH (20 mM to 1 M) at a flow rate of 1 mL min-1. The signals
(§35) were detected with a fluorometer at λex = 355 nm and λem = 460 nm.

MGT from S. aureus = MGT from S. aureus (Staphylococcus aureus, UniProt Q99T05); assay: Glycosyltransferase activity by HPLC, NBD-lipid II; conditions: 200 μg ml^−1, NBD-lipid II
Method: as §30, §31, §32, §33, §34, §35

[13] = In vivo pharmacokinetics, i.v. administration to male rats; conditions: Sprague Dawley, rat, iv, 3.5 mg kg^-1
Method: In vitro metabolic stability studies
as §1, §2, §3, §4, §5, §6, §7
University, Melbourne, Australia).
In vivo efficacy and PK studies
as §8, §9, §10, §11, §12, §13, §15, §16, §17, §18

[14] = tested on: bacterial PG biosynthesis in crude B. megaterium membrane; assay: In vitro PG biosynthesis, [14C]UDP-GlcNAc incorporation into lipid II and PG, TLC; conditions: for Accumulation of lipid II / Inhibit of PG: vs no antibiotic
Text: To elucidate the mode of action of the inhibitors, we conducted various GT enzyme inhibition assays. […] This assay monitors [^14C]UDP-GlcNAc incorporation into lipid II and mature PG, in the presence of different concentrations of antibiotics[39]. Owing to the sequential nature of the glycosyltransfer and transpeptidation, it is not possible to determine at which step PG biosynthesis is blocked in this assay. The low concentration of lipid II can be detected by thin-layer chromatography (TLC) separation and subsequent phosphorimaging of pre-solubilized membranes, which was incubated with the cytoplasmic PG precursors UDP-MurNAc-pentapeptide and UDP-[^14C]GlcNAc[41][42].
The cell-free particulate fraction of B. megaterium KM (ATCC13632), capable of catalysing the polymerization of PG from UPD-linked precursors was performed as described previously[61]. B. megaterium was grown in standard medium, harvested and washed with Tris-buffer by centrifugation. Resuspended bacteria were subjected to three freeze/thaw cycles (5 min dry ice, followed by 10 min at RT), homogenized by the glass homogenizer and centrifuged all at 4 °C, leaving most of the cell wall in the pellet. […] After separation, plates were dried, exposed to phosphorimaging screen (1 week), scanned by Typhoon 8600 calculating the integrated density value of each band on silica gel. Changes of PG or lipid II were calculated as a percentage from negative control (for more details see Supplementary Methods).
Inhibition of Lipid II and peptidoglycan biosynthesis
The cell-free particulate fraction of Bacillus megaterium KM (ATCC13632), capable of catalysing the
polymerisation of PG from UPD-linked precursors was performed as described previously 19 with some
modification. Bacillus megaterium was grown in the medium containing tryptone (Difco-Bacto), 1%
the pH to 7.2. Bacteria were harvested when the density had reached to 0.4 mg dry weight mL-1 and
washed in the buffer 0.05 M Tris-HCl (pH 7.8) containing 10 mM MgCl2 by centrifugation at 6,000 x g
for 10 min at 4 °C. All subsequent manipulations were carried out as close to 0 °C as possible.
bacteria were resuspended in the same buffer at a density of 50 mg dry weight ml-1. Then the bacteria
were subjected to three freeze/thaw cycles (dry ice for 5 min followed by RT for 10 min).
freeze/thaw cycles, bacteria were homogenized by using the glass homogenizer at 4 °C (10 min × 2).
The broken cell suspension was centrifuged at 6,000 x g for 10 min at 4 °C. The supernatant which
contained the unbroken cells and the majority of the cell walls was kept for further centrifugation.

S. aureus MGT = S. aureus MGT (Staphylococcus aureus, UniProt Q99T05); assay: Inhibition of glycosyltransferase, continuous fluorescence assay with dansyl-Lys lipid II
Text: Confirmative dose–response assays were subsequently conducted with continuous fluorescent activity assay using a dansyl-labelled, lysine-lipid II substrate[47]. […] The data were fitted to a simple saturation model of inhibitor binding to a single site, from which IC50 values were extracted.

Gram-positive bacteria = assay: MIC of disaccharide library; assay type: cell-based
Text: In the second stage, we used the disaccharide structure–activity relationship information to design more synthetically feasible and smaller monosaccharide molecules. A versatile solid-phase method was developed to rapidly synthesize the representatives of three different core chemotypes M1 to M3, starting from a single monosaccharide building block, that is, 1,5-anhydro-galactitol (see Fig. 3). Chemotype M1 explored the option of using only two of the hydrophobic elements, whereas the other two, M2 and M3, used a benzimidazole moiety as the third hydrophobic group (Fig. 3).

S. aureus = assay: MIC of disaccharide and monosaccharide libraries (Figures 2, 3); conditions: Staphylococcus aureus
Method: as §29

staphylococci = tested on: staphylococci; parameters: method as in earlier work; conditions: cited from earlier work
enterococci = tested on: enterococci; parameters: method as in earlier work; conditions: cited from earlier work
MR S. aureus, VRE = tested on: MR S. aureus, VRE; parameters: method as in PMID 10464005; conditions: cited from earlier work
[15] = parameters: method as in earlier work; conditions: cited from earlier work
TG = conditions: at 0.1 μg ml^−1; no reference given; cited from earlier work
S.aureus SG511 = conditions: no reference given; cited from earlier work
[16] = mouse mastitis, intramammary, 4 h after inoculation

S. aureus MGT, sequence (Q99T05 whole entry): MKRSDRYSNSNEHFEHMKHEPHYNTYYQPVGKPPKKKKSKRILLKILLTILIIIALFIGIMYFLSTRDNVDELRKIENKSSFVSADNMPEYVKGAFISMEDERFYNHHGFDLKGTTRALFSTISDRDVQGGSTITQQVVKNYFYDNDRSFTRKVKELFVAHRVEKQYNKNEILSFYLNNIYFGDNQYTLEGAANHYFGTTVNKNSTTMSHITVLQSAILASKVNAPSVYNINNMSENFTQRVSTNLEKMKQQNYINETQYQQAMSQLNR
MGT from S. aureus, sequence (Q99T05 whole entry): as above

O=C(Nc1ccc(Cl)c(C(F)(F)F)c1)NC1COC(CO)C(n2c(NCc3ccccc3)nc3cc(C(F)(F)F)ccc32)C1O (stereo not shown) [ACL20215]
MIC (S. aureus Newbould 305): 2 µg/mL (≈ 3.04 µM)
HC50 (Human red blood cells): 74 µg/mL
Metabolic stability (in vitro) [1]: No degradation
Metabolic stability (degradation of the compound) [2]: no degradation
% Dose in urine [3]: < LLQ
Vd (in vivo [4]): 97.2 L/kg
half-life (in vivo [4]): 27.2 h
clearance (in vivo [4]; Blood Cltotal): 48.9 mL/min/kg
clearance (in vivo [4]; Plasma Cltotal): 42.1 mL/min/kg
MTD at 72 h (in vivo [5]): 100 mg/kg
Survival 7 days (S. aureus (Smith); i.p., 50 mg kg^−1, 10 min after inoculation): 100%
Survival 7 days (S. aureus (Smith); i.v., 4 mg kg^−1, 10 min after inoculation): 10%
Good tolerance up to (dose) [6]: 60 mg/kg
No mortality up to (dose) [6]: 100 mg/kg
Central/autonomic responses ([6]; 100 mg kg^−1): some minor changes to central/autonomic responses
MIC [7]: 4 µg/mL (≈ 6.08 µM)
MIC [8]: 4 µg/mL (≈ 6.08 µM)
MIC (S. aureus NRS 17—GISA): 8 µg/mL (≈ 12.2 µM)
MIC (S. aureus NRS 1—GISA): 4 µg/mL (≈ 6.08 µM)
MIC (S. aureus VRS 1): 4 µg/mL (≈ 6.08 µM)
MIC [9]: 4 µg/mL (≈ 6.08 µM)
MIC (E. faecium ATCC 35667): 16 µg/mL (≈ 24.3 µM)
MIC [10]: 8 µg/mL (≈ 12.2 µM)
MIC (E. faecalis ATCC 29212): 4 µg/mL (≈ 6.08 µM)
MIC (E. faecalis VanA, ci): 8 µg/mL (≈ 12.2 µM)
MIC [11]: 4 µg/mL (≈ 6.08 µM)
MIC (E. coli ATCC 25922): > 64 µg/mL
Glands Cleared ([12]; 200 μg gland-1): 0%
CFU/g gland ([12]; 200 μg gland-1, 14 h post treatment): 8.36 ± 1.05 log10
Glands Cleared ([12]; 400 μg gland-1): 0%
CFU/g gland ([12]; 400 μg gland-1, 14 h post treatment): 7.77 ± 0.52 log10
Glands Cleared ([12]; 800 μg gland-1): 0%
CFU/g gland ([12]; 800 μg gland-1, 14 h post treatment): 6.60 ± 1.42 log10
Glands Cleared ([12]; 1000 μg gland-1): 0%
CFU/g gland ([12]; 1000 μg gland-1, 14 h post treatment): 5.72 ± 0.63 log10
PD50 (50% protective dose) ([12]; mouse mastitis, intramammary): >1,000 μg per gland
PD100 (100% protective dose) ([12]; mouse mastitis, intramammary): >1,000 μg per gland
ED2logc.f.u. (effective dose to reduce bacterial load by 2 × log(c.f.u.)) [12, 16]: 730 μg per gland
ED4logc.f.u. (effective dose to reduce bacterial load by 4 × log(c.f.u.)) [12, 16]: 1,400 μg per gland
MIC (S.aureus MSSA): 4 µg/mL (≈ 6.08 µM)
MIC (S.aureus MRSA): 2 µg/mL (≈ 3.04 µM)
MIC (E. faecium): 16 µg/mL (≈ 24.3 µM)
MIC (E. faecium VanB): 16 µg/mL (≈ 24.3 µM)
MIC (E. faecalis): 4 µg/mL (≈ 6.08 µM)
MIC (E.coli): > 64 µg/mL
Inhibitory effect on GT (single concentration) (PBP1 from C. difficile): some inhibition; also recorded: only moderate effect
Inhibitory effect on GT (single concentration) (MGT from S. aureus): some inhibitory effect
blood plasma ratio [13]: 0.86
Accumulation of lipid II ([14]; 10 μg ml-1, 3 h): -3.4 ± 12.7%
Inhibit of PG ([14]; 10 μg ml-1, 3 h): 0.5 ± 6.7%
Accumulation of lipid II ([14]; 30 μg ml-1, 3 h): 17.7 ± 7.1%
Inhibit of PG ([14]; 30 μg ml-1, 3 h): 7.9 ± 0.9%
Accumulation of lipid II ([14]; 100 μg ml-1, 3 h): 34.9 ± 0.6%
Inhibit of PG ([14]; 100 μg ml-1, 3 h): 17.0 ± 1.0%
Accumulation of lipid II ([14]; 200 μg ml-1, 3 h): 47.1 ± 2.8%
Accumulation of lipid II (in words) ([14]; concentration not given): accumulation of lipid II, although to a lesser extent
IC50 (S. aureus MGT): 25.8 µM and 26 µM

CN[C@H](CC(C)C)C(=O)N[C@H]1C(=O)N[C@@H](CC(N)=O)C(=O)N[C@H]2C(=O)N[C@H]3C(=O)N[C@H](C(=O)N[C@H](C(=O)O)c4cc(O)cc(O)c4-c4cc3ccc4O)[C@H](O)c3ccc(c(Cl)c3)Oc3cc2cc(c3O[C@@H]2O[C@H](CO)[C@@H](O)[C@H](O)[C@H]2O[C@H]2C[C@](C)(N)[C@H](O)[C@H](C)O2)Oc2ccc(cc2Cl)[C@H]1O [Vancomycin, reference compound]
MIC [7]: 1 µg/mL (≈ 0.69 µM)
MIC [8]: 1 µg/mL (≈ 0.69 µM)
MIC (S. aureus NRS 17—GISA): 8 µg/mL (≈ 5.52 µM)
MIC (S. aureus NRS 1—GISA): 4 µg/mL (≈ 2.76 µM)
MIC (S. aureus VRS 1): > 64 µg/mL
MIC [9]: 4 µg/mL (≈ 2.76 µM)
MIC [10]: > 64 µg/mL
MIC [11]: 2 µg/mL (≈ 1.38 µM)
Accumulation of lipid II ([14]; 10 μg ml-1, 3 h): 36.6 ± 6.2%
Inhibit of PG ([14]; 10 μg ml-1, 3 h): 12.8 ± 2.0%
Accumulation of lipid II ([14]; 30 μg ml-1, 3 h): 106.8 ± 33.4%
Inhibit of PG ([14]; 30 μg ml-1, 3 h): 15.0 ± 3.5%
Accumulation of lipid II ([14]; 100 μg ml-1, 3 h): 140.6 ± 30.8%
Inhibit of PG ([14]; 100 μg ml-1, 3 h): 21.3 ± 1.4%
Accumulation of lipid II ([14]; 200 μg ml-1, 3 h): 151.5 ± 23.1%
Inhibit of PG ([14]; 200 μg ml-1, 3 h): 36.0 ± 2.8%

NC(CC(=O)NC1C(CO)OCC(NC(=O)Nc2ccc(Cl)c(Cl)c2)C1OC1OC(CO)C(O)C(O)C1NC(=O)Nc1ccc(OC(F)(F)F)cc1)c1ccc(-c2ccccc2)cc1 (stereo not shown) [ACL19378]
Activity in the presence of serum (Gram-positive bacteria; 50% serum): limited activity
MIC (Gram-positive bacteria; Gram-positive bacteria): ~2 µg/mL
MIC (S. aureus): 2 µg/mL

CCCCCCCCCCCCO[C@H](COP(=O)(O)O[C@H]1O[C@H](C(N)=O)[C@@H](O)[C@H](NC(=O)Nc2ccc(OC(F)(F)F)cc2)[C@H]1O[C@@H]1O[C@H](CO)[C@H](O)[C@H](O)[C@H]1NC(=O)c1cccc(C(F)(F)F)c1)C(=O)O [TS30153]
MIC (staphylococci): 3.12 µg/mL (≈ 2.93 µM)
MIC (enterococci): 12.5 µg/mL (≈ 11.7 µM)
MIC (MR S. aureus, VRE): 3.1 – 12.5 μg ml^–1
In vivo activity [15]: no in vivo activity

CC(=O)N[C@H]1[C@H](O[C@H]2[C@@H](OP(=O)(O)OC[C@@H](OCCC(C)CCCCC(C)(C)CCC(C)CCC(C)CCCC(C)C)C(=O)O)O[C@H](C(N)=O)[C@@](C)(O)[C@@H]2OC(N)=O)O[C@H](CO)[C@@H](O)[C@@H]1O (stereo partly shown) [Disaccharide-degradation product]
TG inhibition (TG): 45%
MIC (S.aureus SG511): > 50 µg/mL
